Test results as given in patent US20150051283A1, “COMPOSITION AND METHOD FOR INHIBITION OF PKNG FROM MYCOBACTERIUM TUBERCULOSIS” (priority 2013, published 2015).

What was measured:
[1] = biological target: Xanthine oxidoreductase (XOR) (Homo sapiens, UniProt P47989); settings: reference [15]; cited from earlier work
rabbit muscle GAPDH = biological target: T1, rabbit muscle GAPDH (Oryctolagus cuniculus, UniProt P46406); assay: Reversibility of GAPDH inhibition by DTT (positive control); assay type: biochemical; settings: OA-NO2-inhibited GAPDH
T1 construct: rabbit muscle GAPDH as model protein; from tissue; host or cells: rabbit muscle
Experimental: FIG. 11A: PknG was inhibited by incubation with OA-NO2 (50 μM) in 70 mM ammonium bicarbonate, pH 8.0 at 25° C. for 10 min, as previously. Kinase activity of PknG inhibited by OA-NO2 was measured (PknG+OA-NO2). Subsequently, nitroalkylated samples were treated with DTT (42 mM) or GSH (24 mM) for 15 min at 25° C. and kinase activity was re-measured (PknG+OA-NO2+RSH). Activity recovery was expressed as a ratio between [activity of PknG+OA-NO2+RSH]/[activity PknG+OA-NO2] where 1 means no activity recovery after thiol-containing agent treatment. GAPDH was used as a positive control: after DTT treatment 90% of the initial activity was recovered representing a 12 fold increase in the enzyme activity after the RSH treatment. […] Three independent experiments were performed FIG. 11B: MALDI-TOF mass spectrum of peptides generated by tryptic digestion of PknG. Upper panel: untreated PknG, middle panel: PknG exposed to OA-NO2 and lower panel: idem middle panel+42 mM DTT. In each panel the native or nitroalkylated form of the peptide with the sequence 122-154 that includes the Rbx-Cys 128 and 131, are shown. […]
We have previously reported that nitrated fatty acids are capable to inhibit GAPDH activity by modification of nucleophilic amino acid residues in a thiol-reversible manner. […] PknG control activity was measured in the presence of the thiol-containing reagents. […]

PknGΔ74/TPR = PknGΔ74/TPR (Mycobacterium tuberculosis, UniProt P9WI73); assay type: biochemical
Sequence of PknGΔ74/TPR (P9WI73 whole entry, looked up, stated change not applied): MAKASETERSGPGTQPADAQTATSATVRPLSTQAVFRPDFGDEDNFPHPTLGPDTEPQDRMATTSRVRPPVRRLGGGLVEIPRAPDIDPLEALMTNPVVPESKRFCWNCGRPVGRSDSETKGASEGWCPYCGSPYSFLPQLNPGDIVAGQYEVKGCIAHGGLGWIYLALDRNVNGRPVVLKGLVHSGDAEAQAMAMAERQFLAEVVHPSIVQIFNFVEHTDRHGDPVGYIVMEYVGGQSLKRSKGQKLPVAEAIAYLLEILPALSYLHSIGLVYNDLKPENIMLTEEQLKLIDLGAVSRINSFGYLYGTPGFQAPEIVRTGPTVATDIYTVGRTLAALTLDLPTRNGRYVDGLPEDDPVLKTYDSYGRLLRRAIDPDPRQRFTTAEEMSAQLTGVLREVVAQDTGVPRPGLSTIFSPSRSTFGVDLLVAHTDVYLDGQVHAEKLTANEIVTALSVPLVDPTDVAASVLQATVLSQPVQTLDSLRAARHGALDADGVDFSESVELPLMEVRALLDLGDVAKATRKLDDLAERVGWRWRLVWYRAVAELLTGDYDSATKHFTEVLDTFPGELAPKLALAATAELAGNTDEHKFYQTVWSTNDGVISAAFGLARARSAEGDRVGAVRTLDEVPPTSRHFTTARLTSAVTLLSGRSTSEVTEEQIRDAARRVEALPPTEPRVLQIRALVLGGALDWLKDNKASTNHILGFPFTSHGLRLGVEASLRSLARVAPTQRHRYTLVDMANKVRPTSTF

T1 sequence (P46406 whole entry): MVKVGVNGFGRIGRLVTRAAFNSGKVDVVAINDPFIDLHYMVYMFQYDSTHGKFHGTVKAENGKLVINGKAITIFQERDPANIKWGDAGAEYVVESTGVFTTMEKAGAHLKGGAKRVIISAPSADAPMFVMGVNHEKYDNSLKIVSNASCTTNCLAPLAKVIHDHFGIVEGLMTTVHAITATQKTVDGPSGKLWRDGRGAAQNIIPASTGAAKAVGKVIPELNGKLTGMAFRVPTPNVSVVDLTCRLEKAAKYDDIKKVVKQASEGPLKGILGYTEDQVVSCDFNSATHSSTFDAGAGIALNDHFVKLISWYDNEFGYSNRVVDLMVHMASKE
Sequence of Xanthine oxidoreductase (XOR) (P47989 whole entry): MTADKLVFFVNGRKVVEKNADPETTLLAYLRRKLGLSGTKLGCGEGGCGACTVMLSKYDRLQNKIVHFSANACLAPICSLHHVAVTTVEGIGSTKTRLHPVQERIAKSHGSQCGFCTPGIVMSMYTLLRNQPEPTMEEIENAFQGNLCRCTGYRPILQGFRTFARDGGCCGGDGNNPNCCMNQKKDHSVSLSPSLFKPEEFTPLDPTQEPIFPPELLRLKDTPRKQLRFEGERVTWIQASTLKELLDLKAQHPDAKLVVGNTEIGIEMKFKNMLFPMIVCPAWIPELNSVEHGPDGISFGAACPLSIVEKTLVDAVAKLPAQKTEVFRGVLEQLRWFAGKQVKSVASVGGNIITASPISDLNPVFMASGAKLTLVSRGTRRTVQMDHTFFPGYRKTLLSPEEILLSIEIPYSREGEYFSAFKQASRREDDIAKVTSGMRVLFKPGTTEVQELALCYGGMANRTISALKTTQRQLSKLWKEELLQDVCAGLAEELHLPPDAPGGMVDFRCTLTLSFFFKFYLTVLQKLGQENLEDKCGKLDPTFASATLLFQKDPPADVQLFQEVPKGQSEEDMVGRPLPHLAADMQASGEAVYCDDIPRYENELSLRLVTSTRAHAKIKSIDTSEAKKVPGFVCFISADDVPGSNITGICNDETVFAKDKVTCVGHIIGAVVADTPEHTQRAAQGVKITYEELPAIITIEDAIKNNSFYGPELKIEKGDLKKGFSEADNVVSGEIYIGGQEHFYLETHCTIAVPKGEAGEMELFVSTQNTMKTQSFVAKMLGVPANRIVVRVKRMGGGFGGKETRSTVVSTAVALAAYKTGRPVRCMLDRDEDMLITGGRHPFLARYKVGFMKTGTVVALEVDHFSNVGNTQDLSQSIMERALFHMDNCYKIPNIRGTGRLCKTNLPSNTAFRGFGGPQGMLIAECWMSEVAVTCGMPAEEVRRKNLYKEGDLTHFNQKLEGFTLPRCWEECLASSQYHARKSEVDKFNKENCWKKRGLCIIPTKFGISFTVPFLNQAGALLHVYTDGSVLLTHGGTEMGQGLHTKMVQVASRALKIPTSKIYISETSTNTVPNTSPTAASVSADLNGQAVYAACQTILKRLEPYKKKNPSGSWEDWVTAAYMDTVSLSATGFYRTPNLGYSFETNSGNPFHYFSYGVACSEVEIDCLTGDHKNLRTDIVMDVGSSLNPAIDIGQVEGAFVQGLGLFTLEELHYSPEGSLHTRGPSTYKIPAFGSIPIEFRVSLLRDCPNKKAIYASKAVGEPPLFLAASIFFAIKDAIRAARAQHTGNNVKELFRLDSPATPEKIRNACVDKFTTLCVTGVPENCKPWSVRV

Substance: 9- and 10-nitro-octadeca-9-cis-enoic acid [OA-NO2]
- XOR inhibition, reversibility [1]: not reversed by thiol reagents
- increase in GAPDH activity after RSH treatment (rabbit muscle GAPDH): 12 fold
- initial GAPDH activity recovered after DTT treatment (rabbit muscle GAPDH): 90%
- enzyme inhibition of PknGΔ74/TPR (PknGΔ74/TPR): fully inhibited
